What was measured:
[1] = system: LPS induced mouse depression model; assay: LPS induced mouse depression model, Forced Swim Test; type: in vivo; settings: gavage 2.5 mg/mL at 0.1 mL/10 g twice daily Day 1-4, test 24 hours after injection, FIG. 5
Source text: Mice: Male Crl: CD1 (ICR) mice; 10-14 weeks old; Weight: 35-40 g; Quantity: 40 pieces
Group 1, placebo+saline group: 10 mice; divided into 2 cages, 5 mice per cage.
Group 2, placebo+lipopolysaccharide (LPS) group: 10 mice; divided into 2 cages, 5 mice per cage.
Group 3, compound NRB181+saline group: 10 mice; divided into 2 cages, 5 mice per cage.
Group 4, compound NRB181+lipopolysaccharide (LPS) group: 10 mice; divided into 2 cages, 5 mice per cage.
21.3.1 Preparation of placebo before experiment: 0.5% CMC sodium+1% Tween80+saline. In a clean bench, 4 tubes of 40 mL placebo were prepared using pyrogen-free centrifuge tubes and ultrapure water, totaling 160 mL, ensuring the absence of endotoxins (LPS). Sterile and endotoxin free centrifuge tubes were used to divide […] of placebo into 4 mL/tube, for a total of 30 tubes, and stored at 4° C. for future use.
LPS with a purity of >98% was required 3.2 mg of LPS was accurately weighed and dissolved in 40 mL of placebo to prepare a sterile solution of 0.08 mg/mL. After thorough mixing, the solution was divided into sterile and endotoxin-free centrifuge tubes, 4 mL per tube. […]
21.3.15 On the Day 5 of experiment, 24 hours after mice of Group 1 were injected with saline the day before, a Forced Swim Test was conducted on each group of mice starting from Group 1, and the immobility time of each mouse was recorded.

[2] = system: metabolic enzymes of pentobarbital sodium; assay: LC-MS detection of pentobarbital sodium content in anesthetized mice (pilot experiment); type: in vivo, mouse; settings: pentobarbital sodium content in mice by LC-MS, placebo vs compound
Source text: In addition, to determine whether compound NRB181 has an effect on the metabolic enzymes of pentobarbital sodium, we used LC-MS method to detect the pentobarbital sodium content in mice anesthetized with pentobarbital sodium under placebo and compound action in the pilot experiment.

acutely restrained mice = assay: Pentobarbital sodium sleep test in mice under acute restraint stress; type: in vivo, mouse; settings: male C57BL/6J mice; gavage of 0.1, 0.5, 2.5 mg/mL solutions at 0.1 mL/10 g; 30 minutes later acute restraint for 3 hours; pentobarbital sodium 40 mg/kg i.p.; dose-dependent; FIG. 2
Source text: Mouse: Male C57BL/6J; 8 weeks old; Weight: 20-25 g; Quantity: 31 pieces
Group 1, acute restraint sleeping placebo group, 7 mice, fed with regular care.
Group 2, acute restraint sleeping+low-dose of compound NRB181 group, 8 mice. The mice were fasted and deprived of water during the acute restraint period, and were kept normally at other times.
Group 3, acute restraint sleeping+moderate-dose of compound NRB181 group, 8 mice. The mice were fasted and deprived of water during the acute restraint period, and were kept normally at other times.
Group 4, acute restraint sleeping+high-dose of compound NRB181 group, 8 mice. The mice were fasted and deprived of water during the acute restraint period, and were kept normally at other times.
19.3.1 Preparation of placebo one day before the experiment: 0.5% CMC sodium+1% Tween80+saline.
On the day before the experiment, a high-dose solution of compound NRB181 was prepared: 6 mg of NRB181 was weighed and dissolved in 2.4 mL of placebo to prepare a 2.5 mg/mL solution of NRB181. Sonicated for 10 minutes and stored at 4° C. for later use.
The day before the experiment, a moderate-dose solution of compound NRB181 was prepared: […] of the above high-dose solution was taken and added to a 2 mL placebo centrifuge tube, mixed well, a 0.5 mg/mL NRB181 solution was prepared, sonicated for 10 minutes, and stored at 4° C. for later use. […]

## C[C@H](NC(=O)CNC(=O)c1cc(Cl)ccn1)c1c(F)cccc1F [NRB181]
[1]
  despair time (immobility time) in the Forced Swim Test: significantly reduce the despair time
[2]
  effect on the metabolic enzymes of pentobarbital sodium: no effect
Acutely restrained mice
  sleep time of pentobarbital sodium anesthetized mice: significantly increased
